# Publication PMC6017924, “Mycobacterium tuberculosis H37Rv LpqG Protein Peptides Can Inhibit Mycobacterial Entry through Specific Interactions” (Molecules : A Journal of Synthetic Chemistry and Natural …, 2018)
# Where no end group is shown, it is not given here.
# Columns and labels:
# [1] = test system: A549 cells; type: cell-based; details: MTT, 20 and 200 µM peptide in PBS, 2 h, 5 × 10^4 cells/well; data not shown
# Description: (§1) An MTT cell viability assay was used for evaluating LpqG peptides’ cytotoxic effect; it involved placing 5 × 10^4 cells/well for 2 h with 20 and 200 µM each peptide in PBS, using the afore-mentioned incubation conditions. Triton X-100 was used as cytotoxicity control; 10 µL MTT were then added for 12 h. The resulting formazan crystals were dissolved in SDS and absorbance read at 570 nm.
# [2] = test system: U937 cells; type: cell-based; details: MTT, 20 and 200 µM peptide in PBS, 2 h, 5 × 10^4 cells/well; data not shown
# Description: as §1
sequence,measurement,setting,value
SGCDSHNSGSLGADPRQVTVY [compound 16661],cytotoxicity on A549 cells,[1],4%
same,cytotoxic effect on U937 cells,[2],without having a cytotoxic effect
